This passage reports Activity, IC50 and viability results from ChEMBL document CHEMBL6134781, “In vitro identification of oridonin hybrids as potential anti-TNBC agents inducing cell cycle arrest and apoptosis by regulation of p21, γH2AX and cleaved PARP” (RSC Med Chem, 2024).

The test system of experiment [1] is HCC1937. The experiment can be described thus: Induction of apoptosis in human HCC1937 cells assessed as early apoptotic cells at 1 uM incubated for 24 hrs by Annexin V-FITC/PI staining based flow cytometry (reference value: 0.74 %). Type of experiment: functional.
Experiment [2] concerns MDA-MB-231. Briefly: Induction of apoptosis in human MDA-MB-231 cells assessed as late apoptotic cells at 1 uM incubated for 16 hrs by Annexin V-FITC/PI staining based flow cytometry (reference value: 4.62 %). Type of experiment: functional. In general terms: In flow cytometry, cells or beads pass a laser one at a time.
Experiment [3] relates to MDA-MB-468. The experiment can be described thus: Induction of DNA damage in human MDA-MB-468 cells assessed as increase in gamma-H2AX level incubated for 24 hrs by Western blot analysis. It is filed as functional, cell-based. Particulars: dose 1-3 µM. A general note: In western blotting, separated proteins are transferred to a membrane and probed.
The test system of experiment [4] is HCC1806. The experiment can be described thus: Cytotoxicity against human HCC1806 cells assessed as inhibition of cell viability incubated for 72 hrs by SRB assay. Type of experiment: functional, cell-based. Conditions: HCC1806, 72 h. (Sulforhodamine B stains cellular protein and so reports cell mass.)
Experiment [5] deals with HCC1937. Briefly: Effect on cell cycle distribution in human HCC1937 cells at 1 to 3 uM incubated for 16 hrs by PI staining based flow cytometry. Conditions: dose 1-3 µM. Type of experiment: functional.
The test system of experiment [6] is HCC1806. Briefly: Induction of apoptosis in human HCC1806 cells assessed as necrotic cells at 3 uM incubated for 24 hrs by Annexin V-FITC/PI staining based flow cytometry (reference value: 0.049 %). It is filed as functional.
The subject of experiment [7] is MDA-MB-468. Briefly: Induction of apoptosis in human MDA-MB-468 cells assessed as early apoptotic cells at 3 uM incubated for 24 hrs by Annexin V-FITC/PI staining based flow cytometry (reference value: 3.17 %). It is filed as functional.
The subject of experiment [8] is MDA-MB-231. The experiment can be described thus: Induction of apoptosis in human MDA-MB-231 cells assessed as late apoptotic cells at 3 uM incubated for 16 hrs by Annexin V-FITC/PI staining based flow cytometry (reference value: 4.62 %). Type of experiment: functional.
Experiment [9] concerns HCC1937. The experiment can be described thus: Induction of apoptosis in human HCC1937 cells assessed as necrotic cells at 3 uM incubated for 24 hrs by Annexin V-FITC/PI staining based flow cytometry (reference value: 0.58 %). Type of experiment: functional.
The subject of experiment [10] is HCC1937. Briefly: Induction of apoptosis in human HCC1937 cells assessed as viable cells at 3 uM incubated for 24 hrs by Annexin V-FITC/PI staining based flow cytometry (reference value: 97.2 %). It is filed as functional. Conditions: read-out: Activity.
Experiment [11] relates to HCC1806. Briefly: Induction of apoptosis in human HCC1806 cells assessed as late apoptotic cells at 1 uM incubated for 24 hrs by Annexin V-FITC/PI staining based flow cytometry (reference value: 1.48 %). It is filed as functional.
In experiment [12] the test system is HCC1806. The experiment can be described thus: Induction of apoptosis in human HCC1806 cells assessed as late apoptotic cells at 3 uM incubated for 24 hrs by Annexin V-FITC/PI staining based flow cytometry (reference value: 1.48 %). It is filed as functional.
Experiment [13] has as its system MDA-MB-231. Briefly: Induction of DNA damage in human MDA-MB-231 cells assessed as increase in gamma-H2AX level incubated for 16 hrs by Western blot analysis. It is filed as functional, cell-based. Conditions: dose 1-3 µM.
The test system of experiment [14] is HCC1937. Briefly: Induction of apoptosis in human HCC1937 cells assessed as increase in cleaved PARP-1 level incubated for 24 hrs by Western blot analysis. Type of experiment: functional, cell-based. Particulars: dose 1-3 µM.
For experiment [15], the system named is MDA-MB-468. The experiment can be described thus: Induction of apoptosis in human MDA-MB-468 cells assessed as late apoptotic cells at 1 uM incubated for 24 hrs by Annexin V-FITC/PI staining based flow cytometry (reference value: 3.84 %). Type of experiment: functional.
For experiment [16], the system named is MDA-MB-468. Briefly: Induction of cell cycle arrest in human MDA-MB-468 cells assessed as decrease in accumulation at S phase incubated for 16 hrs by PI staining based flow cytometry. It is filed as functional. Particulars: dose 1-3 µM.
The test system of experiment [17] is HCC1937. The experiment can be described thus: Cytotoxicity against human HCC1937 cells assessed as inhibition of cell viability incubated for 72 hrs by SRB assay. Type of experiment: functional, cell-based. Conditions: HCC1937, 72 h.
Experiment [18] concerns MDA-MB-231. The experiment can be described thus: Induction of cell cycle arrest in human MDA-MB-231 cells assessed as accumulation at G2/M phase incubated for 16 hrs by PI staining based flow cytometry. It is filed as functional. Particulars: dose 1-3 µM.
For experiment [19], the system named is HCC1937. Briefly: Induction of apoptosis in human HCC1937 cells assessed as late apoptotic cells at 1 uM incubated for 24 hrs by Annexin V-FITC/PI staining based flow cytometry (reference value: 1.45 %). It is filed as functional.
Experiment [20] deals with HCC1806. Briefly: Induction of cell cycle arrest in human HCC1806 cells assessed as decrease in accumulation at S phase incubated for 16 hrs by PI staining based flow cytometry. Particulars: dose 1-3 µM. Type of experiment: functional.

Activity calls are given as the source filed them. The rule behind the calls is not given here.

One may read the IC50 as the midpoint of a concentration-inhibition curve.

With `C=C1C(=O)[C@]23[C@H](OC(=O)C45CC6CC(CC(C6)C4)C5)[C@H]1CC[C@H]2[C@@]12CO[C@]3(O)[C@@H](O)[C@@H]1C(C)(C)CC[C@@H]2O`, the Activity is 1.23% with HCC1937 [1]; 1.92% with MDA-MB-231 [2]; “Dose-dependent-effect” in the experiment on MDA-MB-468 [3]; 0.091% in the experiment with HCC1806 [6]; 30% with MDA-MB-468 [7]; 20.4% in the experiment on MDA-MB-231 [8]. The Activity with HCC1937 [9] was 0.61%; with HCC1806 [11] it was 2.8%; in the experiment on HCC1806 [12], 14.2%; in the experiment with MDA-MB-231 [13] it was “Dose-dependent-effect”; in the experiment with HCC1937 [14], “Dose-dependent-effect”; with MDA-MB-468 [15], 7.11%. In addition, the Activity result in the experiment with MDA-MB-468 [16] was “Dose-dependent-effect”; in the experiment on MDA-MB-231 [18] it was “Dose-dependent-effect”; in the experiment on HCC1937 [19], 2.34%; in the experiment on HCC1806 [20], “Dose-dependent-effect”. Moreover, the values for the IC50 in the experiment on HCC1806 [4] and in the experiment on HCC1937 [17] were 1400 nM and 620 nM, respectively. The result in the experiment with HCC1937 [5] was Active. Also, the viability at 3 µM with HCC1937 [10] came out at 71.1%.
